Data: paper PMC6440935, “Characterization and phase I study of CLR457, an orally bioavailable pan-class I PI3-kinase inhibitor” (Investigational New Drugs, 2018)
Read-outs that look alike come from different tables or passages of the source.

Details: drug-related

C[C@H]1OC(=O)N(c2cc(-c3cnc(N)nc3C(F)(F)F)nc(N3CCOCC3)n2)[C@H]1CO [CLR457]
1 (20.0) n (%): Decreased appetite, All Grade (40 mg, N = 5)
1 (25.0) n (%): Fatigue, All Grade (20 mg, N = 4) | Rash, All Grade (20 mg, N = 4)
0 n (%): Cough, Grade ≥ 3 (10 mg, N = 3) | Decreased appetite, All Grade (10 mg, N = 3) | Decreased appetite, Grade ≥ 3 (10 mg, N = 3) | Decreased neutrophil count, All Grade (10 mg, N = 3) | Decreased neutrophil count, Grade ≥ 3 (10 mg, N = 3) | Dehydration, All Grade (10 mg, N = 3) | Dehydration, Grade ≥ 3 (10 mg, N = 3) | Diarrhea, All Grade (10 mg, N = 3) | Diarrhea, Grade ≥ 3 (10 mg, N = 3) | Dry mouth, All Grade (10 mg, N = 3) | Dry mouth, Grade ≥ 3 (10 mg, N = 3) | Dry skin, All Grade (10 mg, N = 3) | Dry skin, Grade ≥ 3 (10 mg, N = 3) | Dysgeusia, All Grade (10 mg, N = 3) | Dysgeusia, Grade ≥ 3 (10 mg, N = 3) | Fatigue, Grade ≥ 3 (10 mg, N = 3) | Headache, All Grade (10 mg, N = 3) | Headache, Grade ≥ 3 (10 mg, N = 3) | Hyperglycemia, All Grade (10 mg, N = 3) | Hyperglycemia, Grade ≥ 3 (10 mg, N = 3) | Hypomagnesaemia, All Grade (10 mg, N = 3) | Hypomagnesaemia, Grade ≥ 3 (10 mg, N = 3) | Maculo-papular rash, All Grade (10 mg, N = 3) | Maculo-papular rash, Grade ≥ 3 (10 mg, N = 3) | Nausea, Grade ≥ 3 (10 mg, N = 3) | Pneumonitis, All Grade (10 mg, N = 3) | Pneumonitis, Grade ≥ 3 (10 mg, N = 3) | Pruritus, All Grade (10 mg, N = 3) | Pruritus, Grade ≥ 3 (10 mg, N = 3) | Pyrexia, All Grade (10 mg, N = 3) | Pyrexia, Grade ≥ 3 (10 mg, N = 3) | Rash, All Grade (10 mg, N = 3) | Rash, Grade ≥ 3 (10 mg, N = 3) | Stomatitis, All Grade (10 mg, N = 3) | Stomatitis, Grade ≥ 3 (10 mg, N = 3) | Vomiting, All Grade (10 mg, N = 3) | Vomiting, Grade ≥ 3 (10 mg, N = 3) | Weight decreased, All Grade (10 mg, N = 3) | Weight decreased, Grade ≥ 3 (10 mg, N = 3) | Asthenia, Grade ≥ 3 (20 mg, N = 4) | Chills, All Grade (20 mg, N = 4) | Chills, Grade ≥ 3 (20 mg, N = 4) | Colitis, All Grade (20 mg, N = 4) | Colitis, Grade ≥ 3 (20 mg, N = 4) | Cough, All Grade (20 mg, N = 4) | Cough, Grade ≥ 3 (20 mg, N = 4) | Decreased appetite, All Grade (20 mg, N = 4) | Decreased appetite, Grade ≥ 3 (20 mg, N = 4) | Decreased neutrophil count, All Grade (20 mg, N = 4) | Decreased neutrophil count, Grade ≥ 3 (20 mg, N = 4) | Dehydration, All Grade (20 mg, N = 4) | Dehydration, Grade ≥ 3 (20 mg, N = 4) | Diarrhea, All Grade (20 mg, N = 4) | Diarrhea, Grade ≥ 3 (20 mg, N = 4) | Dry mouth, All Grade (20 mg, N = 4) | Dry mouth, Grade ≥ 3 (20 mg, N = 4) | Dry skin, All Grade (20 mg, N = 4) | Dry skin, Grade ≥ 3 (20 mg, N = 4) | Dysgeusia, All Grade (20 mg, N = 4) | Dysgeusia, Grade ≥ 3 (20 mg, N = 4) | Fatigue, Grade ≥ 3 (20 mg, N = 4) | Headache, All Grade (20 mg, N = 4) | Headache, Grade ≥ 3 (20 mg, N = 4) | Hyperglycemia, All Grade (20 mg, N = 4) | Hyperglycemia, Grade ≥ 3 (20 mg, N = 4) | Hypomagnesaemia, All Grade (20 mg, N = 4) | Hypomagnesaemia, Grade ≥ 3 (20 mg, N = 4) | Maculo-papular rash, All Grade (20 mg, N = 4) | Maculo-papular rash, Grade ≥ 3 (20 mg, N = 4) | Nausea, All Grade (20 mg, N = 4) | Nausea, Grade ≥ 3 (20 mg, N = 4) | Pneumonitis, All Grade (20 mg, N = 4) | Pneumonitis, Grade ≥ 3 (20 mg, N = 4) | Pruritus, All Grade (20 mg, N = 4) | Pruritus, Grade ≥ 3 (20 mg, N = 4) | Pyrexia, All Grade (20 mg, N = 4) | Pyrexia, Grade ≥ 3 (20 mg, N = 4) | Rash, Grade ≥ 3 (20 mg, N = 4) | Stomatitis, All Grade (20 mg, N = 4) | Stomatitis, Grade ≥ 3 (20 mg, N = 4) | Vomiting, All Grade (20 mg, N = 4) | Vomiting, Grade ≥ 3 (20 mg, N = 4) | Weight decreased, All Grade (20 mg, N = 4) | Weight decreased, Grade ≥ 3 (20 mg, N = 4) | Asthenia, Grade ≥ 3 (40 mg, N = 5) | Chills, All Grade (40 mg, N = 5) | Chills, Grade ≥ 3 (40 mg, N = 5) | Colitis, All Grade (40 mg, N = 5) | Colitis, Grade ≥ 3 (40 mg, N = 5) | Cough, All Grade (40 mg, N = 5) | Cough, Grade ≥ 3 (40 mg, N = 5) | Decreased appetite, Grade ≥ 3 (40 mg, N = 5)
1 (33.3) n (%): Fatigue, All Grade (10 mg, N = 3) | Nausea, All Grade (10 mg, N = 3)
